Like-named read-outs stand apart in the source and are kept apart here. Bridge positions count the residues as written; N and C are the ends. Peptide text beside a SMILES is read from it.

One may read the IC50 as the concentration that gives 50% inhibition.

The target of one series is T1, rat ROMK (Rattus norvegicus, UniProt P35560).
T1 construct: expressed in transfected cells; host or cells: 293T cell line 208-4 (lentiviral transduction, GFP coexpressed)
T1 sequence (P35560 1-391): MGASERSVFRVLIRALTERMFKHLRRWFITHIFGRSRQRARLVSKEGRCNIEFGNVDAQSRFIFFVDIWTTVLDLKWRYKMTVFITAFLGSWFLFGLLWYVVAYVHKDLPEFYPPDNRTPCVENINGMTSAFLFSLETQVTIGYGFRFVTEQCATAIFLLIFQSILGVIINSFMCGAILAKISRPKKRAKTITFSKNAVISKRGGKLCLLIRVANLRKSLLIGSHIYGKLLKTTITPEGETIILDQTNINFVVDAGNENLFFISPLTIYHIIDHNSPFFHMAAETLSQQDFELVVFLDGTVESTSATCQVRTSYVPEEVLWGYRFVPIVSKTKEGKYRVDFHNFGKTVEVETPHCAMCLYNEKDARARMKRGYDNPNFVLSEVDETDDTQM
The series is described as follows: Whole-cell patch-clamp of ROMK currents in 208–4 cells. It is filed as cell-based. The note with it: for inhibition at 1 µM: blockade at 1 μM estimated from fitted Hill curve (four parameters), n = 3–6, read-out: Activity (ROMK channel blocking activity, percentage of blockade at 1 μM); for IC50: 25°C. The procedure, abridged: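 ROMK stably expressed in 208–4 cells; GIRK transiently in 293T, recorded 24 h post-transfection; 25°C, Tyrode (high-K+ 50 mM for GIRK), K-aspartate/KCl pipette with 3 mM MgATP. Steps −150 to 10 mV from −70 mV; currents 60 s after peptide; conductance from I-V slope −140 to −100 mV, Ba2+-resistant current subtracted, normalized to 0 μM TPN.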

The test system of another series is Male ICR mice. The series is described as follows: Wheel running test. The format is in vivo, mouse. The note with it: i.c.v.; 4 min, immediately after EPM. Here is the method:
We performed mouse behavioral experiments in accordance with our previous study. Male ICR mice (n = 199 in total) aged 5 weeks old were purchased from Shimizu Laboratory Supplies (Kyoto, Japan) and maintained in an animal facility for 7–12 days. They had free access to food and water and were kept in a 12-h light/dark cycle (08:00–20:00). Experiments were carried out between 11:00 and 17:00 in a quiet and air-conditioned experimental room, to which mice were habituated for 30–60 min before each experiment. Animal experiments were performed in accordance with the guidelines of the Physiological Society of Japan and were approved by the Committee for Animal Experiments of Kurashiki University of Science and the Arts. Peptides were dissolved in phosphate-buffered saline (PBS). Peptides were injected intracerebroventricularly (i.c.v.) 30 min before behavioral tests (typically 5 μL/mouse), according to a previous study. The mouse was placed into an anesthetizing jar, to which isoflurane (0.2 mL) was added immediately before. […]
Spontaneous motor activity was measured with a multifunctional activity wheel (MK-770, Muromachi Kikai, Tokyo, Japan). […] The number of rotations was counted automatically.

For the compound `CC[C@H](C)[C@@H]1NC(=O)[C@H](CCCNC(=N)N)NC(=O)[C@H](CCCNC(=N)N)NC(=O)[C@H](CC(N)=O)NC(=O)[C@@H]2CSSC[C@@H](C(=O)NCC(=O)N[C@@H](CCCCN)C(=O)N[C@@H](CCCCN)C(N)=O)NC(=O)[C@H](CCCCN)NC(=O)[C@H](CCCCN)NC(=O)[C@H](Cc3c[nH]c4ccccc34)NC(=O)[C@H](CSSC[C@H](NC(=O)[C@H](CC(C)C)NC(=O)[C@H](C)N)C(=O)N[C@@H](CC(N)=O)C(=O)N2)NC(=O)[C@H](CCC(N)=O)NC(=O)[C@H](Cc2c[nH]cn2)NC(=O)[C@@H]2CCCN2C(=O)[C@H]([C@@H](C)CC)NC1=O` [Peptide 2, TPN-RQ] (H-ALCNCNRRIIPHQCWKKCGKK-NH2; disulfide 3-14, 5-18), the inhibition at 1 µM on rat ROMK (whole-cell conductance) is over 80%. Besides, the IC50 on rat ROMK (peptide pre-treated with protein disulfide isomerase, 30 min, n = 4 (Fig 2F), read-out: IC50, ROMK current, PDI-treated peptide) turned out to be 0.24 µM; at rat ROMK (whole-cell conductance, 60 sec after application, n = 3 (Fig 2E), read-out: IC50, ROMK current) it was 0.17 µM. The “spontaneous rotations in activity wheel” value in the series with Male ICR mice is on record as “decreased spontaneous motor activity”.

Regarding `CC[C@H](C)[C@@H]1NC(=O)[C@H](CCCNC(=N)N)NC(=O)[C@H](CC(N)=O)NC(=O)[C@@H]2CSSC[C@@H](C(=O)NCC(=O)N[C@@H](CCCCN)C(=O)N[C@@H](CCCCN)C(N)=O)NC(=O)[C@H](CCCCN)NC(=O)[C@H](CCCCN)NC(=O)[C@H](Cc3c[nH]c4ccccc34)NC(=O)[C@H](CSSC[C@H](NC(=O)[C@H](CC(C)C)NC(=O)[C@H](C)N)C(=O)N[C@@H](CC(N)=O)C(=O)N2)NC(=O)[C@H](CCC(N)=O)NC(=O)[C@H](CC(C)C)NC(=O)[C@@H]2CCCN2C(=O)[C@H]([C@@H](C)CC)NC(=O)[C@H]([C@@H](C)CC)NC1=O` [Peptide 3, TPN-LQ] (H-ALCNCNRIIIPLQCWKKCGKK-NH2; disulfide 3-14, 5-18; N-terminus and C-terminus assumed), the inhibition at 1 µM on rat ROMK (whole-cell conductance) is 60 to 80%. The “spontaneous rotations in activity wheel” value in the series on Male ICR mice is “decreased”.

These data come from paper PMC7665585, “Antidepressive effect of an inward rectifier K^+ channel blocker peptide, tertiapin-RQ” (PLoS ONE, 2020).
